Several values for one entry are separate records, joined by “and”; a condition that tells them apart may be missing. Equal entries are not always repeated.
What was measured:
[1] = test system: CD34+ cells from human umbilical cord blood; test: Culture of cord blood CD34+ cells towards the megakaryocytic lineage (StemSpan ACF + BS1), flow cytometry; assay type: cell-based; conditions: for Percentage of cells bearing CD34+ / Percentage of cells bearing CD34+/CD41+ / Percentage of cells bearing CD34+/CD41− / Percentage of cells bearing CD41+ / Percentage of cells bearing CD41+/CD42+ / Percentage of cells bearing CD42+ / Percentage of cells bearing CD45RA+ / Percentage of cells bearing CD235+: ACF + BS1
Experimental: CD34+ cells were isolated from human umbilical cord blood by positive selection according to standard procedures. Purified CD34+ cells from either single units or pooled from several units of cord blood were seeded in 1 mL of the appropriate culture medium in 24-well plates at a density of approximately 10^5 cells/mL. Cells were maintained at a density of 10^5-10^6 cells/mL throughout the culture by dilution and/or medium replacement.
For culture and differentiation towards the megakaryocytic lineage, purified CD34+ cells were cultured in StemSpan™ ACF medium ([…]™ Technologies, Vancouver, BC, Canada) supplemented with antibiotics and the “BS1” cytokine cocktail described previously (Cortin et al, 2005), and cell counts were performed on days 6, 10, and 14.
Cell counts and viability were measured using the NucleoCounter NC-250™ Viability and Cell Count Assay system (ChemoMetec Inc., Davis, Calif.), according to the manufacturer's instructions.
Cell phenotypes were determined by flow cytometry on the indicated days using the following panel of labeled primary antibodies: CD34-FITC, CD45RA-APC, CD41a-APC, CD42b-PE, and CD235-PE.
CD34+ cells were isolated and cultured for differentiation towards the megakaryocytic lineage as generally described in Example 1.2. […] Flow cytometry was used to monitor the expansion of CD34+/CD41+ MKP cells over time, as described in Example 1.3.
More thorough cell phenotypic profiles of the CD34+ cells isolated and cultured in Example 2 were determined on days 6, 10 and 14 by flow cytometry as described in Example 1.3.

cord blood CD34+ cells = test: Expansion of CD34+/CD41+ megakaryocytic progenitors from cord blood CD34+ cells; assay type: cell-based, human; conditions: 39° C. + PIC 35 nM; 14 days; ACF + OMPC; FIG. 4
Experimental: Human cord blood (CB) was collected after obtaining written informed consent from donors, following our institutional Research Ethics Committee guidelines. Mononuclear cells (MNCs) were first separated over a Ficoll-Hypaque™ density gradient (GE Healthcare), then cryopreserved at −180° C. in Cryostor CS10™ medium ([…] Technologies). Thawed MNCs from six to eight CB were pooled before CD34 isolation. CB CD34+ cells were enriched by positive selection using the EasySep™ CD34 enrichment kit, according to the manufacturer's instructions ([…] Technologies). […]
Cellular counts and viability were determined by adding Solution 18 (Acridine Orange and DAPI solution, ChemomMetec) and using NucleoCounter™ NC-250 for detection (ChemomMetec).
For cells expanded in conditions favoring differentiation towards the MK lineage, surface markers were detected using the following antibodies: CD34-FITC, CD41a-APC and CD42b-PE. […] All samples were analyzed on an Accuri™ C6 flow cytometer (BD Biosciences), and raw data were analyzed with FCS Express 5 Flow Research Edition software from at least 15 000 viable cell events acquired for each sample. […]
Cellular counts and viability were determined as described in Example 6.5. […]

[2] = test system: CD34+ cells from human umbilical cord blood; test: CFU-MK assay (Megacult C) on cells grown in ACF + BS1; assay type: cell-based; conditions: 39° C. + PIC 35 nM; FIG. 2
Experimental: Aliquots of cells grown in StemSpan™ ACF+BS1 culture medium were collected on the indicated days, and CFU-MK were determined using the Megacult™ C kit from […]™ Technologies, according to the manufacturer's instructions.

Cl.Cn1nnc(-c2ccc3c(c2)[nH]c2nc(Cc4ccccc4)nc(N[C@H]4CC[C@H](N)CC4)c23)n1 [PIC, (1r,4r)-N1-(2-benzyl-7-(2-methyl-2H-tetrazol-5-yl)-9H-pyrimido[4,5-b]indol-4-yl)cyclohexane-1,4-diamine hydrochloride]
purity of CD34+/CD41+ cells ([1]; 39° C. + PIC 35 nM, data not shown): above 40%
Percentage of cells bearing CD34+ ([1]; Day 6, 37° C. + PIC 35 nM): 98.38%
Percentage of cells bearing CD34+/CD41+ ([1]; Day 6, 37° C. + PIC 35 nM): 29.54%
Percentage of cells bearing CD34+/CD41− ([1]; Day 6, 37° C. + PIC 35 nM): 68.55%
Percentage of cells bearing CD41+ ([1]; Day 6, 37° C. + PIC 35 nM): 29.27%
Percentage of cells bearing CD41+/CD42+ ([1]; Day 6, 37° C. + PIC 35 nM): 1.71%
Percentage of cells bearing CD42+ ([1]; Day 6, 37° C. + PIC 35 nM): 2.48%
Percentage of cells bearing CD45RA+ ([1]; Day 6, 37° C. + PIC 35 nM): 71.55%
Percentage of cells bearing CD235+ ([1]; Day 6, 37° C. + PIC 35 nM): 11.67%
Percentage of cells bearing CD34+ ([1]; Day 6, 39° C. + PIC 35 nM): 97.19%
Percentage of cells bearing CD34+/CD41+ ([1]; Day 6, 39° C. + PIC 35 nM): 48.85%
Percentage of cells bearing CD34+/CD41− ([1]; Day 6, 39° C. + PIC 35 nM): 48.02%
Percentage of cells bearing CD41+ ([1]; Day 6, 39° C. + PIC 35 nM): 49.84%
Percentage of cells bearing CD41+/CD42+ ([1]; Day 6, 39° C. + PIC 35 nM): 7.95%
Percentage of cells bearing CD42+ ([1]; Day 6, 39° C. + PIC 35 nM): 8.31%
Percentage of cells bearing CD45RA+ ([1]; Day 6, 39° C. + PIC 35 nM): 58.97%
Percentage of cells bearing CD235+ ([1]; Day 6, 39° C. + PIC 35 nM): 19.51%
Percentage of cells bearing CD34+ ([1]; Day 10, 37° C. + PIC 35 nM): 84.39%
Percentage of cells bearing CD34+/CD41+ ([1]; Day 10, 37° C. + PIC 35 nM): 20.21%
Percentage of cells bearing CD34+/CD41− ([1]; Day 10, 37° C. + PIC 35 nM): 64.40%
Percentage of cells bearing CD41+ ([1]; Day 10, 37° C. + PIC 35 nM): 24.84%
Percentage of cells bearing CD41+/CD42+ ([1]; Day 10, 37° C. + PIC 35 nM): 1.30%
Percentage of cells bearing CD42+ ([1]; Day 10, 37° C. + PIC 35 nM): 2.55%
Percentage of cells bearing CD45RA+ ([1]; Day 10, 37° C. + PIC 35 nM): 76.43%
Percentage of cells bearing CD235+ ([1]; Day 10, 37° C. + PIC 35 nM): 7.45%
Percentage of cells bearing CD34+ ([1]; Day 10, 39° C. + PIC 35 nM): 87.29%
Percentage of cells bearing CD34+/CD41+ ([1]; Day 10, 39° C. + PIC 35 nM): 67.10%
Percentage of cells bearing CD34+/CD41− ([1]; Day 10, 39° C. + PIC 35 nM): 21.37%
Percentage of cells bearing CD41+ ([1]; Day 10, 39° C. + PIC 35 nM): 73.31%
Percentage of cells bearing CD41+/CD42+ ([1]; Day 10, 39° C. + PIC 35 nM): 17.09%
Percentage of cells bearing CD42+ ([1]; Day 10, 39° C. + PIC 35 nM): 17.30%
Percentage of cells bearing CD45RA+ ([1]; Day 10, 39° C. + PIC 35 nM): 46.94%
Percentage of cells bearing CD235+ ([1]; Day 10, 39° C. + PIC 35 nM): 14.40%
Percentage of cells bearing CD34+ ([1]; Day 14, 37° C. + PIC 35 nM): 69.53%
Percentage of cells bearing CD34+/CD41+ ([1]; Day 14, 37° C. + PIC 35 nM): 11% and 11.01%
Percentage of cells bearing CD34+/CD41− ([1]; Day 14, 37° C. + PIC 35 nM): 54.97%
Percentage of cells bearing CD41+ ([1]; Day 14, 37° C. + PIC 35 nM): 23.65%
Percentage of cells bearing CD42+ ([1]; Day 14, 37° C. + PIC 35 nM): 3.02%
Percentage of cells bearing CD45RA+ ([1]; Day 14, 37° C. + PIC 35 nM): 61.90%
Percentage of cells bearing CD235+ ([1]; Day 14, 37° C. + PIC 35 nM): 2.90%
Percentage of cells bearing CD34+ ([1]; Day 14, 39° C. + PIC 35 nM): 88.56%
Percentage of cells bearing CD34+/CD41+ ([1]; Day 14, 39° C. + PIC 35 nM): 76.5% and 76.46%
Percentage of cells bearing CD34+/CD41− ([1]; Day 14, 39° C. + PIC 35 nM): 10.25%
Percentage of cells bearing CD41+ ([1]; Day 14, 39° C. + PIC 35 nM): 87.90%
Percentage of cells bearing CD42+ ([1]; Day 14, 39° C. + PIC 35 nM): 27.09%
Percentage of cells bearing CD45RA+ ([1]; Day 14, 39° C. + PIC 35 nM): 27.09%
Percentage of cells bearing CD235+ ([1]; Day 14, 39° C. + PIC 35 nM): 12.61%
Percentage of cells bearing CD41+/CD42+ ([1]; Day 14, 39° C. + PIC 35 nM, hydrochloride): 27% and 27.04%
combined use of mild hyperthermia and PIC on expansion of CD34+/CD41+ cells (cord blood CD34+ cells): synergistic effect
combined effect of mild hyperthermia and PIC on the number of CFU-MK [2]: synergized

— patent US11666600B2, “Methods for culturing and/or differentiating hematopoietic stem cells into progenitors and uses thereof” (HEMA-QUEBEC, priority 2015, dated 2023)
